# Laboratory results published in patent publication US11197812B2, “Cosmetic formulations for topical applications containing erythropoietin-derived molecules” (ASC REGENITY LTD., priority 2016, dated 2021).
# Where no end group is shown, it is not given here.
# Experiments:
# [1] = system: persons suffering from acne; settings: human, in vivo
# Procedure: Four test groups (corresponding to the “peptides, 0, 2, 3 and 4”) with each five persons (in total, 20 subjects) suffering from acne, were treated twice daily with a formulation of the invention (“iARP-lotion” with trigger factor complex) for one week. No undesirable or even pathological lesions in the relevant skin area of the test persons were observed.
# [2] = system: severe acne on the face and neck; experiment: Acne Trial 1 (single test person); assay type: in vivo, human; settings: after one week of treatment with the respective formulation
# Procedure: The test person was a person with severe acne on the face and neck. They were treated for one week with a standard cosmetic formulation based on a control lipid (dexpanthenol/panthenol), but without a polypeptide according to the invention. […] Then a cosmetic formulation according to the invention was applied, but again without a polypeptide according to the invention. The formulation contained ceramides and lecithin instead of dexpanthanol, and amino acids such as L-arginine. […] The test person then was treated with a formulation of the invention now comprising “Peptide 0”. […] After 3 weeks the test person was treated with the same formulation but which now comprised “Peptide 4” instead of the reference polypeptide (“Peptide 0”).
# [3] = system: UV light-induced erythema on skin of healthy subjects; experiment: Erythema recovery assay (UVB light-induced erythema, doubled MED); assay type: in vivo, human; settings: 20 μl lotion on 1×1 cm^2 area, 6 hours after exposure, normalized redness
# Description: Another means of measuring the efficacy of tissue-protection exerted by any formulation is the speed of skin recovery from a UVB light-induced erythema such as common sunburns. Erythema are skin irritations with enhanced redness of the skin due to local hyperaemia (enhanced blood flow in superficial capillaries) that is associated with repair processes in the skin. The quicker the repair process is, the quicker the hyperaemia gets shut down and thus the quicker the skin redness gets reduced to normal levels. Accordingly, the redness can be measured as a proxy for the damage status of the skin.
# In this assay, healthy subjects received the doubled minimal erythema dose (MED) on skin areas of about 1×1 cm^2 on the left arm. Beforehand, the MED was determined individually for each subject by exposing other skin areas to increasing intensities of UV light emitted by the UV6 lamp (280-360 nm) of the Waldmann UV 802 L device. […]
# Before light double MED exposure and after 6 hours, skin redness in the exposed area was spectroscopically measured using the ‘chroma meter CR-400’ manufactured by Konica Minolta. Redness of every area in every subject 6 hours after the exposure was normalized to the redness of the same area before the exposure by division of measured redness values. […]
# skin = experiment: Relative cosmetic relevance in over-all skin-protective activity; set-up: species or system human
# [4] = system: facial skin of healthy subjects; experiment: Cosmetic skin improvement assay (Canfield VISIA facial skin analysis); assay type: in vivo, human; settings: cream once a day, after one month, versus controls / dexpanthenol 5% / QEQLERALNSS formulation
# Description: In this assay the cosmetic facial skin appearance upon application of the formulations of this invention was monitored. For that purpose, the commercially available state-of-the-art facial skin imaging and data analysis platform, the Canfield Bio Visia™, was utilized, (see here: https://www.canfieldsci.com/imaging-systems/visia-complexion-analysis/). This platform provides the possibility of a i) highly standardized, ii) highly reproducible, iii) quantitative, iv) non-invasive, and vi) subject or tester bias-free skin quality analysis. It records several photos of the face from different angles and records absorption/reflection spectra (see figure: Canfield VISIA facial skin analysis platform). […] The in-built software standardizes every parameter by comparison to a large database of skin feature norms and returns a value in the range of 0%-to 100% to permit inter-individual subject comparison.
# Healthy subjects received cosmetic creams with formulations of this invention or controls in a blinded manner, i.e. the subjects were unaware of the identity of the received cosmetic cream. […] Subject skin quality was assessed before the start of the application and after one month (31±3 days). As a control, to account for seasonal and lifestyle change associated skin quality changes, quality of the hand exterior surface was monitored as well. […]
Molecule,overall skin tolerance compatibility [1],unwanted skin reactions caused by skin-irritating or sensitizing effects [1],further results
"NEQLERALNTS [Peptide 2, NEQLERALNTS]",improved overall skin tolerance compatibility as excellent,did not trigger any unwanted skin reactions,
"QDQLERALNTS [Peptide 4, QDQLERALNTS]",still rated good,did not trigger any unwanted skin reactions,
"QEQLERALNSS [Peptide 0, QEQLERALNSS, reference compound]",,did not trigger any unwanted skin reactions,
"QDQLERALNST [Peptide 3, QDQLERALNST]",improved overall skin tolerance compatibility as excellent,did not trigger any unwanted skin reactions,
CC(C)(CO)[C@@H](O)C(=O)NCCCO [Dexpanthenol],,,change of acne [2]: slightly reduced
NEQLERALNST (RRQEQLERALNSSRR; ′Peptide 0′ plus vasculature relaxation stimulating agents at 5′- and 3′ end;) [Peptide 1],,,"double MED-induced skin redness (erythema) [3]: performed even better than the formulations with the previously described […] peptide; relative cosmetic relevance in over-all skin-protective activity (rank order) (skin): EPO<EPO fragments 1-3<Peptide 0, 1<Peptide 3<Peptide 2<Peptide 4; improvement of measured skin parameters (spots, wrinkles, smoothness) [4]: performed even better than the formulations with the previously described […] peptide"
